Reference: article PMC12606464, “Investigating NFE2L1 activators for targeted protein aggregate clearance: a follow-up study” (RSC Medicinal Chemistry, 2025)

System: NFE2L1/TCF11/NRF1, SQSTM1/p62, LC3, NQO1 and HSPA1A/HSP70-1 protein levels
Assay: Immunoblot analysis in HEK293 cells
Type: cell-based, human
Settings: for LC3-I protein level, Treatment geometric mean / LC3-II protein level, Treatment geometric mean / HSPA1A protein level, Treatment geometric mean / LC3-total protein level, Treatment geometric mean / NFE2L1 protein level, Treatment geometric mean / NQO1 protein level, Treatment geometric mean / SQSTM1 protein level, Treatment geometric mean: immunoblot quantification; for LC3-I protein level, Treatment geometric mean / LC3-II protein level, Treatment geometric mean / HSPA1A protein level, Treatment geometric mean / LC3-total protein level, Treatment geometric mean / NFE2L1 protein level, Treatment geometric mean / NQO1 protein level, Treatment geometric mean / SQSTM1 protein level, Treatment geometric mean / HSPA1A protein level, geometric mean of ratios / LC3-II protein level, geometric mean of ratios / LC3-total protein level, geometric mean of ratios / NFE2L1 protein level, geometric mean of ratios / NQO1 protein level, geometric mean of ratios / SQSTM1 protein level, geometric mean of ratios: Fig. 2B; for LC3-I protein level, Treatment geometric mean: control geometric mean = 0.24; for LC3-II protein level, Treatment geometric mean: control geometric mean = 0.73; for HSPA1A protein level, Treatment geometric mean / LC3-total protein level, Treatment geometric mean / NFE2L1 protein level, Treatment geometric mean / NQO1 protein level, Treatment geometric mean / SQSTM1 protein level, Treatment geometric mean: control geometric mean = 1; for HSPA1A protein level, geometric mean of ratios / LC3-II protein level, geometric mean of ratios / LC3-total protein level, geometric mean of ratios / NFE2L1 protein level, geometric mean of ratios / NQO1 protein level, geometric mean of ratios / SQSTM1 protein level, geometric mean of ratios: ratio paired t test, treatment vs control
Protocol: Fig. 2 (A) qPCRs of HEK293 cells treated with RUN compounds (7.5 μM) for 16 hours. The extracted RNA was reverse transcribed into cDNA and utilized for RT-qPCR (primers are listed in the SI, Table S1); the mRNA levels of RPLP0 were used for normalization. The experiment was performed in three biological replicates (n = 3). (B) Immunoblot analysis of proteins NFE2L1/TCF11/NRF1, SQSTM1/p62, LC3, NQO1 and HSPA1A/HSP70-1 in HEK293 cells after 16 h treatment with 7.5 μM RUN compounds. The protein levels were quantified by measuring the integrated fluorescence of the corresponding protein bands and normalized to the β-actin load. The full-length (F) and cleaved (C) forms of NFE2L1 were analyzed together. The experiment was performed in four biological replicates (n = 4) except for NFE2L1 (n = 3). (A and B) Results of RUN compounds were compared to the DMSO control using ratio paired t-tests corrected for multiple comparisons with Holm–Šídák's method (α = 0.05). *p < 0.05, **p < 0.01. Detailed results of the analysis are shown in SI Tables S5 and S6.
To confirm NFE2L1-controlled gene expression at the protein level, western blot analysis was performed. HEK293 cells were treated with selected RUN compounds for 16 hours, after which the protein levels were analyzed. […] Similar observations were made with SQSTM1 and LC3. As mentioned earlier, SQSTM1 directly binds to the LC3 region to facilitate the delivery of proteins for autophagic clearance.[62,64,65] Within cells, LC3 undergoes cleavage to form its cytosolic version, LC3-I, which is further converted into its membrane-bound form, LC3-II, which is anchored in autophagosomal membranes.[60,66] Consequently, both SQSTM1 and LC3 are widely regarded as markers of autophagy.[65] […] The increase in the LC3-II form indicates active autophagic processes. […]
HEK293 cells were treated with 7.5 µM RUN compounds for 16 h, then harvested and resuspended in lysis buffer [50 mM HEPES (pH 7.5), 5 mM EDTA, 150 mM NaCl, 2 mM ATP, and 1% Triton]. Cell lysates were subsequently centrifuged at 15,000 rpm and 4°C for 15 minutes, and then a protein concentration was determined using the Pierce BCA Protein Assay Kit (Thermo Fisher Scientific). Cell lysates were boiled for 5 min at 95 °C in a 6xSDS sample buffer [350 mM Tris-HCl (pH 6.8), 350 mM SDS, 30% (v/v) glycerol, 4% β-mercaptoethanol, 180 µM bromophenol blue]. Prepared samples (15 µg of proteins) were separated by SDS-PAGE (10, 12, or 16% Bis-Tris gels; 50 V for 5 min, then 200 V) and transferred onto a 0.45 µm nitrocellulose membrane (Bio-Rad). For LC3 level analysis, the 0.2 µm nitrocellulose membrane (Bio-Rad) was used. Membranes were blocked in Intercept® (TBS) Blocking Buffer (LI-COR Biosciences) for 1 h at room temperature and then incubated with primary antibodies in Intercept® (TBS) Blocking Buffer with 0.1% Tween-20 overnight at 4°C. Used primary antibodies: anti-NFE2L1/TCF11/SKN1/NRF1 monoclonal antibody (Cell Signalling; #8052; anti-NQO1 polyclonal antibody (Sigma-Aldrich; # HPA007308; 1:5.000), anti-LC3 antibody […]
(Sigma-Aldrich; #L8918), anti-p62/SQSTM antibody (Sigma-Aldrich; #P0067), anti-β-actin monoclonal antibody (Sigma-Aldrich; #A5441; 1:10.000). The resulting membranes were washed and incubated with near-infrared fluorophore-conjugated goat anti-mouse IRDye […]
COR Biosciences; #926-32211; 1:15.000) for 1 h at room temperature. Membranes were imaged using Odyssey® M NIR Imaging System (LI-COR Biosciences) and quantified using Image Studio software v. 6.0 (LI-COR Biosciences). The protein levels were quantified by measuring the integrated fluorescence of the corresponding protein bands and normalized to the β-actin loading control. Changes in protein levels after treatment with RUN compounds were analyzed using paired t-tests with correction for multiple comparisons using the Holm-Šídák method (α = 0.05) in GraphPad Prism (v 10.6.1).
2.7 Proteasome activity assay […]

[1] = HEK293, 7.5 μM, 16 h, versus DMSO

With `COc1ccc(/C=C2\CC(N)C/C(=C\c3ccc(OC)c(OC)c3)C2=O)cc1OC` (centres unmarked) [RUN-81] the “LC3-I protein level, Treatment geometric mean” value (“LC3-I protein level” below) was 0.29, the “LC3-II protein level, Treatment geometric mean” value was 1.57 and the “HSPA1A protein level, Treatment geometric mean” value was 3.49. The “LC3-total protein level, Treatment geometric mean” value was 1.88, the “NFE2L1 protein level, Treatment geometric mean” value was 6.78 and the “NQO1 protein level, Treatment geometric mean” value was 3.12. The “SQSTM1 protein level, Treatment geometric mean” value was 3.55, the “HSPA1A protein level, geometric mean of ratios” value (shortened to “HSPA1A protein level … of ratios”) was 3.49 and the “LC3-II protein level, geometric mean of ratios” value (from here on “LC3-II protein level … of ratios”) was 2.14. The “LC3-total protein level, geometric mean of ratios” value was 1.88, the “NFE2L1 protein level, geometric mean of ratios” value (“NFE2L1 protein level … of ratios” for short) was 6.78 and the “NQO1 protein level, geometric mean of ratios” value (“NQO1 protein level … of ratios” for short) was 3.12. For the same compound, the “SQSTM1 protein level, geometric mean of ratios” value was 3.55.
In the case of `COc1ccc(/C=C2\CC(NC(=O)C3CCCC3)C/C(=C\c3ccc(OC)c(OC)c3)C2=O)cc1OC` (centres unmarked) [RUN-89], the “Total LC3 protein level” value [1] is reported as “significantly elevate”, the “LC3-I protein level” value is reported as 0.26 and the “LC3-II protein level, Treatment geometric mean” value is reported as 1.88. The “HSPA1A protein level, Treatment geometric mean” value was 4.38, the “LC3-total protein level, Treatment geometric mean” value was 2.16 and the “NFE2L1 protein level, Treatment geometric mean” value was 13.41. For the same compound, the “NQO1 protein level, Treatment geometric mean” value was 3.31, the “SQSTM1 protein level, Treatment geometric mean” value was 4.74 and the “HSPA1A protein level … of ratios” value was 4.38. For the same compound, the “LC3-II protein level … of ratios” value was 2.56, the “LC3-total protein level, geometric mean of ratios” value was 2.16 and the “NFE2L1 protein level … of ratios” value was 13.41. The “NQO1 protein level … of ratios” value was 3.31.
`COc1ccc(/C=C2\CC(NC(=O)c3ccccn3)C/C(=C\c3ccc(OC)c(OC)c3)C2=O)cc1OC` (centres unmarked) [RUN-94] was tested, and the NQO1 protein level [1] was “notably boosting”, the “Total LC3 protein level” value [1] was “significantly elevate” and the “LC3-I protein level” value was 0.38. For the same compound, the “LC3-II protein level, Treatment geometric mean” value was 1.72, the “HSPA1A protein level, Treatment geometric mean” value was 3.12 and the “LC3-total protein level, Treatment geometric mean” value was 2.14. The “NFE2L1 protein level, Treatment geometric mean” value was 14.37, the “NQO1 protein level, Treatment geometric mean” value was 4.16 and the “SQSTM1 protein level, Treatment geometric mean” value was 5.55. The “HSPA1A protein level … of ratios” value was 3.12, the “LC3-II protein level … of ratios” value was 2.35 and the “LC3-total protein level, geometric mean of ratios” value was 2.14. For the same compound, the “NFE2L1 protein level … of ratios” value was 14.37, the “NQO1 protein level … of ratios” value was 4.16 and the “SQSTM1 protein level, geometric mean of ratios” value was 5.55.
